Species on record: Rattus norvegicus
Test: Open TG-GATES - Regimen: Single
Format: toxicity, organism-based, Sprague-Dawley
Set-up: regimen Single, gender Male, age 6 weeks
Details: in vivo, po, route gavage; for A/G / ALP / ALT / AST / BUN / CRE / Ca / Cl / DBIL / GLC / IP / K / LDH / Na / PL / RALB / TBIL / TC / TG / TP / gamma-GTP: tissue Plasma; for APTT / Bas / Eos / Fbg / Hb / Ht / Lym / MCH / MCHC / MCV / Mono / Neu / PT / Plat / RBC / Ret / WBC: tissue Blood; for KIDNEY_L / KIDNEY_R / KIDNEY_TOTAL: tissue Kidney; for LIVER: tissue Liver
[1] = 30 mg/kg, 9 h, dose level Middle
[2] = 30 mg/kg, 24 h, dose level Middle
[3] = 100 mg/kg, 3 h, dose level High

O=C1CN(/N=C/c2ccc([N+](=O)[O-])o2)C(=O)N1 [NITROFURANTOIN] gave an A/G [1] of 1.6, an ALP [1] of 825.2 IU/L and an ALT [1] of 33.2 IU/L. The AST [1] was 62 IU/L, the BUN [1] was 10.4 mg/dL and the CRE [1] was 0.3 mg/dL. It also gave a Ca [1] of 10.4 mg/dL, a Cl [1] of 101.8 meq/L and a DBIL [1] of 0.072 mg/dL. For the same compound, the GLC [1] was 199 mg/dL, the IP [1] was 9.7 mg/dL and the K [1] was 3.8 meq/L. For the same compound, the LDH [1] was 197.6 IU/L, the Na [1] was 139.6 meq/L and the PL [1] was 130.2 mg/dL. The RALB [1] was 3.3 g/dL, the TBIL [1] was 0.1 mg/dL and the TC [1] was 67.4 mg/dL. The TG [1] was 57.4 mg/dL, the TP [1] was 5.4 g/dL and the gamma-GTP [1] was 0.4 IU/L. For the same compound, the TERMINAL_BW [2] was 231.7 g, the APTT [2] was 18.6 s and the Bas [2] was 0%. For the same compound, the Eos [2] was 1%, the Fbg [2] was 219.2 mg/dL and the Hb [2] was 13.3 g/dL. It also gave a Ht [2] of 37.8%, a Lym [2] of 77.8% and an MCH [2] of 21.9 pg. The MCHC [2] was 35.1%, the MCV [2] was 62.4 fL and the Mono [2] was 2.4%. It also gave a Neu [2] of 17.4%, a PT [2] of 12.7 s and a Plat [2] of 115.4 x10_4/uL. The RBC [2] was 604.6 x10_4/ul, the Ret [2] was 7.1% and the WBC [2] was 92 x10_2/uL. It also gave a KIDNEY_L [2] of 1.1 g, a KIDNEY_R [2] of 1.1 g and a KIDNEY_TOTAL [2] of 2.1 g. It also gave an LIVER [2] of 11.1 g, an A/G [2] of 1.6 and an ALP [2] of 1093.6 IU/L. The ALT [2] was 39 IU/L, the AST [2] was 67.8 IU/L and the BUN [2] was 13.6 mg/dL. It also gave a CRE [2] of 0.4 mg/dL, a Ca [2] of 10.7 mg/dL and a Cl [2] of 102.2 meq/L. It also gave a DBIL [2] of 0.1 mg/dL, a GLC [2] of 211.8 mg/dL and an IP [2] of 7.6 mg/dL. The K [2] was 4.1 meq/L, the LDH [2] was 176 IU/L and the Na [2] was 139.8 meq/L. It also gave a PL [2] of 140.8 mg/dL, an RALB [2] of 3.3 g/dL and a TBIL [2] of 0.2 mg/dL. It also gave a TC [2] of 69.4 mg/dL, a TG [2] of 115 mg/dL and a TP [2] of 5.4 g/dL. It also gave a gamma-GTP [2] of 1 IU/L, a TERMINAL_BW [3] of 220.5 g and a TERMINAL_BW (100 mg/kg, 3 h, dose level Low) of 205.8 g. For the same compound, the APTT [3] was 19.6 s, the Bas [3] was 0% and the Eos [3] was 1%. It also gave a Fbg [3] of 215.6 mg/dL, a Hb [3] of 13.1 g/dL and a Ht [3] of 37.2%. The Lym [3] was 78.6%, the MCH [3] was 21.8 pg and the MCHC [3] was 35.1%. For the same compound, the MCV [3] was 62.1 fL, the Mono [3] was 2.6% and the Neu [3] was 16.4%. The PT [3] was 12.8 s, the Plat [3] was 113 x10_4/uL and the RBC [3] was 599.8 x10_4/ul. It also gave a Ret [3] of 8%, a WBC [3] of 80.6 x10_2/uL and an APTT (100 mg/kg, 3 h, dose level Low) of 16.1 s. For the same compound, the Eos (100 mg/kg, 3 h, dose level Low) was 1.2%, the Fbg (100 mg/kg, 3 h, dose level Low) was 227.8 mg/dL and the Hb (100 mg/kg, 3 h, dose level Low) was 13.4 g/dL. It also gave a Ht (100 mg/kg, 3 h, dose level Low) of 40.5%, a Lym (100 mg/kg, 3 h, dose level Low) of 75.6% and an MCH (100 mg/kg, 3 h, dose level Low) of 21.4 pg. The MCHC (100 mg/kg, 3 h, dose level Low) was 33%, the MCV (100 mg/kg, 3 h, dose level Low) was 64.7 fL and the Mono (100 mg/kg, 3 h, dose level Low) was 6.8%. The PT (100 mg/kg, 3 h, dose level Low) was 11.9 s, the Plat (100 mg/kg, 3 h, dose level Low) was 124.7 x10_4/uL and the RBC (100 mg/kg, 3 h, dose level Low) was 625.4 x10_4/ul. It also gave a Ret (100 mg/kg, 3 h, dose level Low) of 7.7%, a WBC (100 mg/kg, 3 h, dose level Low) of 78.5 x10_2/uL and a KIDNEY_L [3] of 1 g. The KIDNEY_R [3] was 1 g, the KIDNEY_TOTAL [3] was 2 g and the KIDNEY_L (100 mg/kg, 3 h, dose level Low) was 0.9 g. For the same compound, the KIDNEY_TOTAL (100 mg/kg, 3 h, dose level Low) was 1.9 g, the LIVER [3] was 10 g and the LIVER (100 mg/kg, 3 h, dose level Low) was 8.6 g. The A/G [3] was 1.6, the ALP [3] was 909.6 IU/L and the ALT [3] was 38 IU/L. For the same compound, the AST [3] was 69.8 IU/L, the BUN [3] was 12 mg/dL and the CRE [3] was 0.4 mg/dL. For the same compound, the Ca [3] was 10.7 mg/dL, the Cl [3] was 101.6 meq/L and the DBIL [3] was 0.068 mg/dL. The GLC [3] was 183.2 mg/dL, the IP [3] was 9.2 mg/dL and the K [3] was 4 meq/L. The LDH [3] was 229.4 IU/L, the Na [3] was 140.4 meq/L and the PL [3] was 137.6 mg/dL. For the same compound, the RALB [3] was 3.4 g/dL, the TBIL [3] was 0.1 mg/dL and the TC [3] was 77.2 mg/dL. The TG [3] was 66.2 mg/dL, the TP [3] was 5.5 g/dL and the gamma-GTP [3] was 0.8 IU/L. For the same compound, the A/G (100 mg/kg, 3 h, dose level Low) was 2.4, the ALP (100 mg/kg, 3 h, dose level Low) was 1349.8 IU/L and the ALT (100 mg/kg, 3 h, dose level Low) was 39.2 IU/L. The AST (100 mg/kg, 3 h, dose level Low) was 64.6 IU/L, the BUN (100 mg/kg, 3 h, dose level Low) was 11.2 mg/dL and the CRE (100 mg/kg, 3 h, dose level Low) was 0.3 mg/dL. It also gave a Ca (100 mg/kg, 3 h, dose level Low) of 11.1 mg/dL, a Cl (100 mg/kg, 3 h, dose level Low) of 104.2 meq/L and a DBIL (100 mg/kg, 3 h, dose level Low) of 0.006 mg/dL. The GLC (100 mg/kg, 3 h, dose level Low) was 187.6 mg/dL, the IP (100 mg/kg, 3 h, dose level Low) was 9.6 mg/dL and the K (100 mg/kg, 3 h, dose level Low) was 4.3 meq/L. For the same compound, the LDH (100 mg/kg, 3 h, dose level Low) was 91.8 IU/L, the Na (100 mg/kg, 3 h, dose level Low) was 138.8 meq/L and the PL (100 mg/kg, 3 h, dose level Low) was 144 mg/dL. It also gave an RALB (100 mg/kg, 3 h, dose level Low) of 4 g/dL, a TBIL (100 mg/kg, 3 h, dose level Low) of 0.032 mg/dL and a TC (100 mg/kg, 3 h, dose level Low) of 91.2 mg/dL. The TG (100 mg/kg, 3 h, dose level Low) was 63.2 mg/dL, the TP (100 mg/kg, 3 h, dose level Low) was 5.7 g/dL and the gamma-GTP (100 mg/kg, 3 h, dose level Low) was 1 IU/L. For the same compound, the TERMINAL_BW (100 mg/kg, 6 h, dose level High) was 216.2 g.

— ChEMBL document CHEMBL3885861, “Open TG-GATES”
